Values after ≈ are worked out from the molar mass of the structure shown. Where two headings read alike, the source gives them in different places. Numbered stars: 1 amine (or outer) side, 2 acyl side, 3 side chain; on linkers, the order of the positions; unused ones are H or OH. Square brackets hold non-standard residues; d marks the D form. Peptide text beside a SMILES is read from it. ξ: configuration not given here. X30 = CN([C@@H](Cc1cccc(-c2ccc(Cl)c(Cl)c2)c1)C(=O)[*:2])[*:1]; X33 = CN([C@@H](Cc1cccc(-c2ccc3ccccc3c2)c1)C(=O)[*:2])[*:1]; X5 = CN([C@@H](Cc1cccc(-c2ccc3cnccc3c2)c1)C(=O)[*:2])[*:1]; Hmp(2R,3S) = CC[C@H](C)[C@@H](O)C(=O)O; NMeVal(β-OH) = CN[C@H](C(=O)O)C(C)(C)O; X6 = CCC(C)[C@@H](O[*:1])C(=O)[*:2]; Ile(3ξ) = CCC(C)[C@H](N)C(=O)O; NMeV = CN[C@H](C(=O)O)C(C)C; ξL = CC(C)CC(N)C(=O)O
Assays:
[1] = tested on: C. albicans MMX 2000 ATCC 10231; assay: MIC assay (CLSI microdilution); format: cell-based; conditions: Candida albicans, ATCC10231, RPMI plus 0.002% Tween-80; read-out: MIC
Procedure: (§1) Aureobasidin and test compounds (i.e., AbA derivatives of the present invention) were received from Kalexsyn, Inc. (Kalamazoo, Mich.) as powder and were stored at 4° C. until the day of assay. […] amphotericin was obtained from Sigma Aldrich and stored under like conditions. […] Ethanol (95%) was used as a solvent and diluent for all AbA compounds. Amphotericin B was tested from 0.06-64 μg/mL. Amphotericin B (Sigma Aldrich; St. Louis, Mo.; Cat No. A9528-100MG, Lot No. 120M4087) was dissolved and diluted with dimethylsulfoxide (DMSO; Sigma Aldrich; St. Louis, Mo.; Cat No. 472301 Lot No. SHBD2072V).
(§2) The solvents were added to the test agents and the stock solutions stood for approximately 1 hr at room temperature prior to use to auto sterilize. Stock solutions were prepared at 40× the desired top concentration in the test plate.
(§3) All of the test isolates were originally received from either the American Type Culture Collection (ATCC), clinical labs, or directly from Aureogen Biosciences. Organisms stored by Micromyx were cultured on agar medium appropriate to each organism. Colonies were picked by swab from the isolation plates and put into suspension in appropriate broth containing cryoprotectant. The suspensions were aliquoted into cryogenic vials and maintained at −80° C.
(§4) Prior to testing, Candida isolates were streaked from the frozen vials on Sabouraud dextrose agar. The yeast isolates were incubated for 48 hours at 35° C. before use. The fungal isolates were obtained from enumerated fungal stocks previously prepared at Micromyx and stored in phosphate buffered saline at 4° C.
(§5) Test Media. The medium employed for the MIC assay was RPMI-1640 medium from HyClone Laboratories (Logan, Utah; Lot No. AYB60287A). The medium was prepared according to Clinical and Laboratory Standards Institute (CLSI) guidelines (1, 2), and modified to include 0.002% Tween-80. Candida parapsilosis ATCC 22019 (MMX 2323) and Aspergillus fumigatus ATCC MYA-3626 (MMX 5280) were also tested without Tween-80 to provide data for the quality control of amphotericin B in accordance with CLSI (3) and to assess the effect of Tween-80 on the activity of the test agents.
(§6) Test Procedure. The MIC assay method followed the procedure described by CLSI (1, 2) and employed automated liquid handlers to conduct serial dilutions and liquid transfers. Automated liquid handlers included the Multidrop 384 (Labsystems, Helsinki, Finland), Biomek 2000 and Biomek FX (Beckman Coulter, Fullerton Calif.). The wells in columns 2-12 in standard 96-well microdilution plates (Costar 3795) were filled with 150 μl of the appropriate diluent (95% EtOH for investigational compounds, 100% DMSO for amphotericin B). These assay plates would become the ‘mother plates’ from which the assay ‘daughter plates’ would be prepared. The drugs (300 μL at 40× the desired top concentration in the test plates) were dispensed into the appropriate well in Column 1 of the mother plates. The Biomek 2000 was used to make two-fold serial dilutions through Column 11 in the “mother plate”. The wells of Column 12 contained no drug and served as the organism growth control wells.
(§7) The daughter plates were loaded with 185 μL per well on the Multidrop 384 with RPMI plus 0.002% Tween-80 or RPMI containing no Tween-80 for the testing of the two QC isolates. The daughter plates were prepared on the Biomek FX instrument which transferred 5 μL of drug solution from each well of a mother plate to each corresponding well of each daughter plate in a single step.
(§8) A standardized inoculum of each organism was prepared per CLSI methods (1, 2). For the Candida isolates, colonies were picked from the streak plate and a suspension was prepared in RPMI to equal a 0.5 McFarland standard. This suspension was diluted 1:100 in RPMI resulting in a final concentration of approximately 0.5-2.5×10^3 CFU/mL. […]

[2] = tested on: C. neoformans MMX 0634 ATCC 90112; assay: MIC assay (CLSI microdilution); format: cell-based; conditions: Cryptococcus neoformans, ATCC90112, RPMI plus 0.002% Tween-80; read-out: MIC
Procedure: as §1, §2, §3, §4, §5, §6, §7, §8

[3] = tested on: C. parapsilosis MMX 2323 ATCC 22019; assay: MIC assay (CLSI microdilution); format: cell-based, Candida parapsilosis
Procedure: as §1, §2, §3, §4, §5, §6, §7, §8

A. flavus MMX 5948 = assay: MIC/MEC assay (CLSI microdilution); format: cell-based; conditions: Aspergillus flavus, MMX5948, 48 h
Procedure: as §1, §2, §3, §4, §5, §6, §7, §8

A. fumigatus MMX 5944 = assay: MIC/MEC assay (CLSI microdilution); format: cell-based; conditions: for minimal effective concentration / MIC: Aspergillus fumigatus, MMX5944, 48 h; for MIC: RPMI plus 0.002% Tween-80, read-out: MIC
Procedure: as §1, §2, §3, §4, §5, §6, §7, §8

[4] = tested on: A. fumigatus MMX 6781 ATCC MYA-4609; assay: MIC/MEC assay (CLSI microdilution); format: cell-based; conditions: Aspergillus fumigatus; for MIC: 48 h, RPMI plus 0.002% Tween-80, read-out: MIC; for minimal effective concentration: RPMI plus 0.002% Tween-80, 48 hr
Procedure: as §1, §2, §3, §4, §5, §6, §7, §8

[5] = tested on: A. fumigatus MMX 6782 ATCC 13073; assay: MIC/MEC assay (CLSI microdilution); format: cell-based; conditions: Aspergillus fumigatus, ATCC13073, 48 h; for MIC: RPMI plus 0.002% Tween-80, read-out: MIC
Procedure: as §1, §2, §3, §4, §5, §6, §7, §8

[6] = tested on: A. niger MMX 0624 ATCC 16888; assay: MIC/MEC assay (CLSI microdilution); format: cell-based; conditions: Aspergillus niger, ATCC16888, 48 h
Procedure: as §1, §2, §3, §4, §5, §6, §7, §8

[7] = tested on: A. fumigatus MMX 5280 ATCC MYA-3626; assay: MIC/MEC assay (CLSI microdilution); format: cell-based, Aspergillus fumigatus
Procedure: as §1, §2, §3, §4, §5, §6, §7, §8

[8] = ATCC22019, RPMI plus 0.002% Tween-80, read-out: MIC
[9] = ATCC22019, Without Tween-80, read-out: MIC
[10] = RPMI plus 0.002% Tween-80, read-out: MIC
[11] = RPMI plus 0.002% Tween-80, read-out: MEC
[12] = Aspergillus fumigatus, 48 h, RPMI plus 0.002% Tween-80, read-out: MEC
[13] = Aspergillus fumigatus, 48 h, RPMI plus 0.002% Tween-80, read-out: MIC
[14] = Aspergillus fumigatus, 48 h, Without Tween-80, read-out: MEC
[15] = Aspergillus fumigatus, 48 h, Without Tween-80, read-out: MIC
[16] = read-out: MEC, RPMI plus 0.002% Tween-80

Row | MIC [1] [mg/L] | MIC [2] [mg/L] | MIC [3, 8] [mg/L] | MIC [3, 9] [mg/L] | MIC (A. flavus MMX 5948; [10]) [mg/L] | MIC (A. fumigatus MMX 5944) [mg/L] | MIC [4] [mg/L] | MIC [5] [mg/L] | MIC [6, 10] [mg/L] | MIC [7, 13] [mg/L] | MIC [7, 15] [mg/L] | SMILES | minimal effective concentration (A. flavus MMX 5948; RPMI plus 0.002% Tween-80) [µg/mL] | minimal effective concentration (A. fumigatus MMX 5944; RPMI plus 0.002% Tween-80) [µg/mL] | minimal effective concentration [4] [µg/mL] | minimal effective concentration [5, 11] [µg/mL] | minimal effective concentration [6, 11] [µg/mL] | minimal effective concentration [7, 12] [µg/mL] | minimal effective concentration [7, 14] [µg/mL] | other results
1 | 0.12 | 0.12 | 0.5 | 2 (≈ 1.6 µM) | 1 | > 64 | > 64 | > 64 | 0.5 | > 64 | > 64 | CC[C@H](C)[C@@H]1NC(=O)[C@@H]2CCCN2C(=O)[C@H](Cc2cccc(-c3ccc(Cl)c(Cl)c3)c2)N(C)C(=O)[C@H](Cc2ccccc2)NC(=O)[C@H](C(C)C)N(C)C(=O)[C@@H]([C@@H](C)CC)OC(=O)[C@H](C(C)(C)O)N(C)C(=O)[C@H](CC(C)C)NC(=O)[C@H](C(C)C)N(C)C1=O [Compound 2] (cyclo(F[X30]PI[NMeV]L[NMeVal(β-OH)][Hmp(2R,3S)][NMeV])) | 0.5 | 0.5 | 0.5 | 0.25 | 0.5 | 0.5 | 8 | –
2 | 0.12 | 0.12 | 0.5 | 2 (≈ 1.63 µM) | 1 | > 64 | > 64 | > 64 | 0.5 | > 64 | > 64 | CC[C@H](C)[C@@H]1NC(=O)[C@@H]2CCCN2C(=O)[C@H](Cc2cccc(-c3ccc4ccccc4c3)c2)N(C)C(=O)[C@H](Cc2ccccc2)NC(=O)[C@H](C(C)C)N(C)C(=O)[C@@H]([C@@H](C)CC)OC(=O)[C@H](C(C)(C)O)N(C)C(=O)[C@H](CC(C)C)NC(=O)[C@H](C(C)C)N(C)C1=O [Compound 5] (cyclo(F[X33]PI[NMeV]L[NMeVal(β-OH)][Hmp(2R,3S)][NMeV])) | 0.5 | 0.5 | 0.5 | 0.5 | 0.5 | 0.5 | 4 | –
3 | – | – | – | – | – | – | – | – | – | – | – | CCC(C)[C@@H]1NC(=O)[C@@H]2CCCN2C(=O)[C@H](Cc2cccc(-c3ccc4cnccc4c3)c2)N(C)C(=O)[C@H](Cc2ccccc2)NC(=O)[C@H](C(C)C)N(C)C(=O)[C@@H](C(C)CC)OC(=O)[C@H](C(C)(C)O)N(C)C(=O)C(CC(C)C)NC(=O)[C@H](C(C)C)N(C)C1=O (stereo partly drawn) [Compound 6] (cyclo(F[X5]P[Ile(3ξ)][NMeV][ξL][NMeVal(β-OH)][X6][NMeV])) | – | – | – | – | – | – | – | MIC ([3]; ATCC22019, RPMI plus 0.002% Tween-80): 0.12 mg/L; MIC ([3]; ATCC22019, Without Tween-80): 1 mg/L (≈ 0.814 µM); MIC (A. flavus MMX 5948; RPMI plus 0.002% Tween-80): 0.25 mg/L; MEC (A. fumigatus MMX 5944; RPMI plus 0.002% Tween-80, 48 hr): 0.5 µg/mL; minimal effective concentration [5, 16]: 0.25 µg/mL; MIC ([6]; RPMI plus 0.002% Tween-80): 0.12 mg/L; minimal effective concentration [6, 16]: 0.12 µg/mL; minimal effective concentration ([7]; Aspergillus fumigatus, 48 h, read-out: MEC, RPMI plus 0.002% Tween-80): 1 µg/mL; minimal effective concentration ([7]; Aspergillus fumigatus, 48 h, read-out: MEC, Without Tween-80): 2 µg/mL; MIC ([7]; Without Tween-80, 48 hr): > 64 mg/L
